Reference: patent US4791139A, “Diphenyl ether derivatives and their use as insecticides” (Imperial Chemical Industries PLC, priority 1986, dated 1988)

What was measured:
Format in all cases: in vivo
[1] = system: Musca domestica (houseflies - adults); experiment: Knockdown test, houseflies - adults (MD/KD), Cotton wool/sugar; settings: 4 hours, read-out: MD/KD grading of knockdown
Procedure, shortened: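 Product was dissolved in acetone and diluted with water containing 0.1% wetting agent to 100–500 ppm. The flies and/or their food medium were treated with the preparation. Mortality was scored 1–7 days after treatment, with an additional knockdown assessment for houseflies.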

[2] = system: Nilaparvata lugens (brown plant hopper - nymphs); experiment: Contact test, brown plant hopper - nymphs (NL), Rice plant; settings: 72 h, 3 days, read-out: NL grading of mortality
Procedure, shortened: (§1)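 Each pest was kept on its food plant or foodstuff and exposed, directly or via the medium, to 100 to 500 ppm Product in water containing 0.1% by weight wetting agent. Kill was recorded over one to seven days.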

[3] = system: Tetranychus urticae (spider mites - ova); experiment: Contact test, spider mites - ova (TUe), French bean leaf; settings: 144 h, 6 days, read-out: TUE grading of mortality
Procedure, shortened: as §1

[4] = system: Meloidogyne incognita (Tomato root knot eelworm - larvae); experiment: Residual test, Tomato root knot eelworm - larvae (MI), Semi in-vitro; settings: 168 h, application rate is half that recorded, 7 days, read-out: MI grading of mortality; for mortality at 250 µg/mL: rate column 500 ppm; for mortality at 125 µg/mL: rate 250 ppm
[5] = system: Heliothis virescens (tobacco budworm - larvae); experiment: Residual test, tobacco budworm - larvae (HV), Cotton leaf; settings: 72 h, read-out: HV grading of mortality
Procedure, shortened: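 Products applied as acetone solutions diluted in water with 0.1% wetting agent, at 100–500 ppm; pests on host plant or food, with pests and/or medium treated. Mortality or knockdown scored 1–7 days after treatment and graded A (80–100%), B (50–79%) or C (<50%).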

[6] = system: Musca domestica (houseflies - adults); experiment: Contact test, houseflies - adults (MD), Cotton wool/sugar; settings: 24 h, 1 day, read-out: MD grading of mortality
Procedure, shortened: as §1

[7] = system: Blattella germanica (cockroach nymphs); experiment: Residual test, cockroach nymphs (BG), Plastic pot; settings: 72 h, 3 days, read-out: BG grading of mortality
Procedure, shortened: as §1

[8] = system: Chilo partellus (Maize stemborer - larvae); experiment: Residual test, Maize stemborer - larvae (CP), Oilseed rape; settings: 72 h, 3 days, read-out: CP grading of mortality
Description: The activity of the Product was determined using a variety of insect pests. The Product was used in the form of liquid preparations containing from 100 to 500 parts per million (ppm) by weight of the Product. The preparations were made by dissolving the Product in acetone and diluting the solutions with water containing 0.1% by weight of a wetting agent sold under the trade name "SYNPERONIC" NX until the liquid preparations contained the required concentration of the Product. "SYNPERONIC" is a Registered Trade Mark.
The test procedure adopted with regard to each pest was basically the same and comprised supporting a number of the pests on a medium which was usually a host plant or a foodstuff on which the pests feed, and treating either or both the pests and the medium with the preparations. The mortality of the pests was then assessed at periods usually varying from one to seven days after the treatment.
The results of the tests are given in Table III for each of the Products, at the rate in parts per million given in the second column as a grading of mortality designated as A, B or C wherein A indicates 80-100% mortality or knockdown (70-100% for Meloidogyne incognita), B indicates 50-79% mortality knockdown or knockdown (50-69% for Meloidogyne incognita) and C indicates less than 50% mortality or knockdown.
In Table III the pest organism used is designated by a letter code and the pests species, the support medium or food, and the type and duration of test is given in Table II.
(Maize stemborer - larvae)

[9] = system: Diabrotica balteata (rootworm larvae); experiment: Residual test, rootworm larvae (DB), Filter paper/maize seed; settings: 72 h, 3 days, read-out: DB grading of mortality
Procedure, shortened: as §1

[10] = system: Tetranychus urticae (spider mites - adult); experiment: Contact test, spider mites - adult (TUa), French bean leaf; settings: 72 h, 3 days, read-out: TUA grading of mortality
Procedure, shortened: as §1

[11] = system: Myzus persicae (aphids); experiment: Contact test, aphids (MP), Chinese Cabbage leaf; settings: 72 h, 3 days, read-out: MP grading of mortality
Procedure, shortened: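 Aphids on a host plant and/or the plant itself were treated with 100–500 ppm of product, applied from acetone diluted in water containing 0.1% SYNPERONIC NX wetting agent. Mortality was scored usually one to seven days after treatment.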

## CCOc1ccc(/C(=C\CCc2cccc(Oc3ccccc3)c2)C(F)(F)F)cc1 [Compound 3, E-1,1,1-trifluoro-2-(4-ethoxyphenyl)-5-(3-phenoxyphenyl)pent-2-ene]
[1]
  pest or weed control at 500 ppm: 80 to 100%
[2]
  mortality at 500 ppm: < 50%
[3]
  mortality at 500 ppm: < 50%
[4]
  mortality at 250 µg/mL: < 50%
[5]
  mortality at 500 ppm: 80 to 100%
[6]
  mortality at 500 ppm: 80 to 100%
[7]
  mortality at 500 ppm: 80 to 100%
[8]
  mortality at 500 ppm: 80 to 100%
[9]
  mortality at 500 ppm: 80 to 100%
[10]
  mortality at 500 ppm: 50 to 79%
[11]
  mortality at 500 ppm: 80 to 100%

## CCOc1ccc(C(=CCCc2cccc(Oc3ccccc3)c2)C(F)(F)F)cc1 [Compound 1, E,Z-2-(4-ethoxyphenyl)-5-(3-phenoxyphenyl)-1,1,1-trifluoropent-2-ene]
[1]
  pest or weed control at 500 ppm: 80 to 100%
[2]
  mortality at 500 ppm: 80 to 100%
[4]
  mortality at 250 µg/mL: 50 to 69%
[5]
  mortality at 500 ppm: 80 to 100%
[6]
  mortality at 500 ppm: 80 to 100%
[7]
  mortality at 500 ppm: 80 to 100%
[8]
  mortality at 500 ppm: 80 to 100%
[9]
  mortality at 500 ppm: 80 to 100%
[11]
  mortality at 500 ppm: 80 to 100%

## FC(F)(F)c1ccc(C(CCCc2cccc(Oc3ccccc3)c2)C(F)(F)F)cc1 (racemic) [Compound 16, 1,1,1-Trifluoro-2-(4-trifluoromethylphenyl)-5-(3-phenoxyphenyl)pentane]
[1]
  pest or weed control at 250 ppm: 80 to 100%
[2]
  mortality at 250 ppm: 80 to 100%
[4]
  mortality at 125 µg/mL: < 50%
[5]
  mortality at 250 ppm: 80 to 100%
[6]
  mortality at 250 ppm: 80 to 100%
[7]
  mortality at 250 ppm: 80 to 100%
[8]
  mortality at 250 ppm: 80 to 100%
[9]
  mortality at 250 ppm: 80 to 100%
[10]
  mortality at 250 ppm: 50 to 79%
[11]
  mortality at 250 ppm: 80 to 100%

## CCOc1ccc(C(=CCCc2cccc(Oc3ccccc3)c2)C(F)(F)C(F)(F)F)cc1 [Compound 10, 3-(4-ethoxyphenyl)-1,1,1,2,2-pentafluoro-6-(3-phenoxyphenyl)hex-3-ene]
[1]
  pest or weed control at 250 ppm: < 50%
[2]
  mortality at 250 ppm: < 50%
[3]
  mortality at 250 ppm: < 50%
[4]
  mortality at 125 µg/mL: < 50%
[5]
  mortality at 250 ppm: < 50%
[6]
  mortality at 250 ppm: < 50%
[7]
  mortality at 250 ppm: 50 to 79%
[8]
  mortality at 250 ppm: < 50%
[9]
  mortality at 250 ppm: < 50%
[10]
  mortality at 250 ppm: < 50%
[11]
  mortality at 250 ppm: < 50%

## CCOc1ccc(C(C/C=C/c2cccc(Oc3ccccc3)c2)C(F)(F)F)cc1 (stereo not drawn) [Compound 34, 1,1,1-trifluoro-2-(4-ethoxyphenyl)-5-(3-phenoxyphenyl)pent-4-ene]
[1]
  pest or weed control at 250 ppm: < 50%
[2]
  mortality at 250 ppm: < 50%
[3]
  mortality at 250 ppm: < 50%
[4]
  mortality at 125 µg/mL: 70 to 100%
[5]
  mortality at 250 ppm: < 50%
[6]
  mortality at 250 ppm: < 50%
[7]
  mortality at 250 ppm: < 50%
[8]
  mortality at 250 ppm: 80 to 100%
[9]
  mortality at 250 ppm: < 50%
[10]
  mortality at 250 ppm: < 50%
[11]
  mortality at 250 ppm: 80 to 100%

## CCOc1ccc(C(CCCc2ccc(F)c(Oc3ccccc3)c2)C(F)(F)F)cc1 (racemic) [Compound 5, 1,1,1-Trifluoro-2-(4-ethoxyphenyl)-5-(4-fluoro-3-phenoxyphenyl)pentane]
[1]
  pest or weed control at 250 ppm: 80 to 100%
[2]
  mortality at 250 ppm: 80 to 100%
[3]
  mortality at 250 ppm: 50 to 79%
[4]
  mortality at 125 µg/mL: < 50%
[5]
  mortality at 250 ppm: 80 to 100%
[6]
  mortality at 250 ppm: 80 to 100%
[7]
  mortality at 250 ppm: 80 to 100%
[8]
  mortality at 250 ppm: 80 to 100%
[9]
  mortality at 250 ppm: 80 to 100%
[10]
  mortality at 250 ppm: 80 to 100%
[11]
  mortality at 250 ppm: 80 to 100%

## CCOc1ccc(/C(=C\C=C\c2ccc(F)c(Oc3ccccc3)c2)C(F)(F)F)cc1 [Compound 36, 1,1,1-trifluoro-2-(4-ethoxyphenyl)-5-(4-fluoro-3-phenoxyphenyl)penta-2,4-diene]
[1]
  pest or weed control at 250 ppm: 80 to 100%
[2]
  mortality at 250 ppm: 80 to 100%
[3]
  mortality at 250 ppm: < 50%
[4]
  mortality at 125 µg/mL: 50 to 69%
[5]
  mortality at 250 ppm: 80 to 100%
[6]
  mortality at 250 ppm: 80 to 100%
[7]
  mortality at 250 ppm: 80 to 100%
[8]
  mortality at 250 ppm: 80 to 100%
[9]
  mortality at 250 ppm: 80 to 100%
[10]
  mortality at 250 ppm: < 50%
[11]
  mortality at 250 ppm: 80 to 100%

## FC(F)(F)C(=CCCc1cccc(Oc2ccccc2)c1)c1ccc(C(F)(F)F)cc1 [Compound 15, 5-(3-phenoxyphenyl)-1,1,1-trifluoro-2-(4-trifluoromethylphenyl)pent-2-ene]
[1]
  pest or weed control at 250 ppm: < 50%
[2]
  mortality at 250 ppm: < 50%
[3]
  mortality at 250 ppm: < 50%
[4]
  mortality at 125 µg/mL: < 50%
[5]
  mortality at 250 ppm: 80 to 100%
[6]
  mortality at 250 ppm: < 50%
[7]
  mortality at 250 ppm: 80 to 100%
[8]
  mortality at 250 ppm: 80 to 100%
[9]
  mortality at 250 ppm: < 50%
[10]
  mortality at 250 ppm: 50 to 79%
[11]
  mortality at 250 ppm: < 50%

## CCOc1ccc(C(CC=Cc2cccc(Oc3ccccc3)c2)C(F)(F)F)cc1 (stereo not drawn) [Compound 31, 1,1,1-trifluoro-2-(4-ethoxyphenyl)-5-(3-phenoxyphenyl)pent-4-ene]
[1]
  pest or weed control at 250 ppm: 80 to 100%
[2]
  mortality at 250 ppm: 80 to 100%
[3]
  mortality at 250 ppm: < 50%
[4]
  mortality at 125 µg/mL: < 50%
[5]
  mortality at 250 ppm: 80 to 100%
[6]
  mortality at 250 ppm: 80 to 100%
[7]
  mortality at 250 ppm: 80 to 100%
[8]
  mortality at 250 ppm: 80 to 100%
[9]
  mortality at 250 ppm: 80 to 100%
[10]
  mortality at 250 ppm: < 50%
[11]
  mortality at 250 ppm: 80 to 100%

## CCOc1ccc(/C(=C\C=Cc2ccc(F)c(Oc3ccccc3)c2)C(F)(F)F)cc1 [Compound 12, 1,1,1-trifluoro-2-(4-ethoxyphenyl)-5-(4-fluoro-3-phenoxyphenyl)penta-2,4-diene]
[1]
  pest or weed control at 500 ppm: 80 to 100%
[2]
  mortality at 500 ppm: 80 to 100%
[3]
  mortality at 500 ppm: < 50%
[4]
  mortality at 250 µg/mL: 70 to 100%
[5]
  mortality at 500 ppm: 80 to 100%
[6]
  mortality at 500 ppm: 80 to 100%
[7]
  mortality at 500 ppm: 80 to 100%
[8]
  mortality at 500 ppm: 80 to 100%
[9]
  mortality at 500 ppm: 80 to 100%
[10]
  mortality at 500 ppm: < 50%
[11]
  mortality at 500 ppm: < 50%

## CCOc1ccc(/C(=C/CCc2cccc(Oc3ccccc3)c2)C(F)(F)F)cc1 [Compound 4, Z-1,1,1-trifluoro-2-(4-ethoxyphenyl)-5-(3-phenoxyphenyl)pent-2-ene]
[1]
  pest or weed control at 500 ppm: < 50%
[2]
  mortality at 500 ppm: < 50%
[3]
  mortality at 500 ppm: < 50%
[4]
  mortality at 250 µg/mL: < 50%
[5]
  mortality at 500 ppm: 80 to 100%
[6]
  mortality at 500 ppm: < 50%
[7]
  mortality at 500 ppm: < 50%
[8]
  mortality at 500 ppm: 80 to 100%
[9]
  mortality at 500 ppm: < 50%
[10]
  mortality at 500 ppm: < 50%
[11]
  mortality at 500 ppm: < 50%

## FC(F)(F)C(=CCCc1cccc(Oc2ccccc2)c1)c1ccc(Br)cc1 [Compound 39, 1,1,1-Trifluoro-2-(4-bromophenyl)-5-(3-phenoxyphenyl)-pent-2-ene]
[1]
  pest or weed control at 500 ppm: < 50%
[2]
  mortality at 500 ppm: < 50%
[3]
  mortality at 500 ppm: < 50%
[6]
  mortality at 500 ppm: < 50%
[7]
  mortality at 500 ppm: 50 to 79%
[8]
  mortality at 500 ppm: 80 to 100%
[9]
  mortality at 500 ppm: < 50%
[11]
  mortality at 500 ppm: < 50%

## FC(F)(F)C(CCCc1cccc(Oc2ccccc2)c1)c1ccc(Cl)cc1 (racemic) [Compound 38, 1,1,1-Trifluoro-2-(4-chlorophenyl)-5-(3-phenoxyphenyl)pentane]
[1]
  pest or weed control at 500 ppm: 50 to 79%
[2]
  mortality at 500 ppm: 80 to 100%
[3]
  mortality at 500 ppm: < 50%
[6]
  mortality at 500 ppm: 50 to 79%
[7]
  mortality at 500 ppm: 50 to 79%
[8]
  mortality at 500 ppm: 80 to 100%
[9]
  mortality at 500 ppm: 80 to 100%
[10]
  mortality at 500 ppm: 80 to 100%
[11]
  mortality at 500 ppm: < 50%
